Tissue uptake and IC50 data for seven compounds are collected here from patent US20260248972A1, “DUAL RECEPTOR TARGETING RADIOLIGANDS AND USES THEREOF RELATED APPLICATIONS” (priority 2022, published 2026).

Data set [1] is described as follows: in vivo. The settings on record: BALB/c nude, mouse, in vivo, iv, total radioactivity. The method in brief:
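Tissue uptake given as % ID and % ID/g from γ counting of organs taken 4, 24 and 72 h after injection into BALB/c nude mice carrying subcutaneous AR42J xenografts (0.05-0.50 g). Tracers were ^177Lu-labelled at 95° C for 15 min in pH 4.5 NaOAc buffer and used neat or diluted in PBS containing 3 mg/mL ascorbate.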

Data set [2] deals with T1, CCK2R (Homo sapiens, UniProt P32239).
T1 construct: expressed in transfected cells; host or cells: HEK 293T cells
T1 sequence (P32239 1-447): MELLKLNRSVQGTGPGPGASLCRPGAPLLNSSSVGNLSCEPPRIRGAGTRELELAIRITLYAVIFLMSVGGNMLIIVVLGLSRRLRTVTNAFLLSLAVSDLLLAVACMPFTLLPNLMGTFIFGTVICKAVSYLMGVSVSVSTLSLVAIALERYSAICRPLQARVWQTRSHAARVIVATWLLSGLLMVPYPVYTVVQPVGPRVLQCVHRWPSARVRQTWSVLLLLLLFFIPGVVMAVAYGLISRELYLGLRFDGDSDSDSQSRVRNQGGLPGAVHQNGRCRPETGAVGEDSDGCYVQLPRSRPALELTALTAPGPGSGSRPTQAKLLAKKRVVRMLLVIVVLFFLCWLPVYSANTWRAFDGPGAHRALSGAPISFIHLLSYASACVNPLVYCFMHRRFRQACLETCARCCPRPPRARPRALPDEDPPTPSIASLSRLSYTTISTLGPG
Briefly: Competitive binding (FACS) on CCK2R-transfected HEK 293T cells with Cy5-labeled Z360. The conditions noted are these: HEK 293T transfected, Cy5-labeled Z360 competitive ligand (Table 3). The protocol: (§1) Binding Affinity Tested by Using Cy5-Labled Competitive Ligands.
(§2) HEK 293T cells were transfected with SSTR2 or CCK2R-expressing plasmid by Lipofectamine 2000 reagent. 24 hours after transfection, cells were harvested and suspended with assay buffer (1% OVA in DMEM). […] The testing compound was further supplemented into the wells at different concentrations. After incubation for 1 hour at dark, cells were washed and suspended in FACS buffer (1% OVA in DPBS). The fluorescent signal was detected by FACS machine and the binding affinity of the testing compound was evaluated by calculation of IC50 for competitive binding of reference compound.

Data set [3] concerns the target T2, CCK2R (Rattus norvegicus, UniProt P30553).
T2 construct: host or cells: AR42J cells
T2 sequence (P30553 1-452): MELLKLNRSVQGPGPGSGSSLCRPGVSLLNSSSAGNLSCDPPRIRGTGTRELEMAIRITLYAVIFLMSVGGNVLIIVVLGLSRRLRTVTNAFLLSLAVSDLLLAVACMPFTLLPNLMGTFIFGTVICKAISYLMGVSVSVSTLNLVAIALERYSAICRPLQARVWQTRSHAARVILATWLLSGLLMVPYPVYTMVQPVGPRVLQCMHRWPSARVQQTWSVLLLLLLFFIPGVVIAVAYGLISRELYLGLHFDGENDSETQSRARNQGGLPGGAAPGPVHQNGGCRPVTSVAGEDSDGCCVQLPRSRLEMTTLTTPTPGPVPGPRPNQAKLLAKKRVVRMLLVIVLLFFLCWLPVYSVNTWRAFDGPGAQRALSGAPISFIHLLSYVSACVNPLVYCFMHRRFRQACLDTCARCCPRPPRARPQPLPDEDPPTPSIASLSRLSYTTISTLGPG
Nature of the data set: Competitive cell-binding assay on AR42J cells with 125I-C3 as competitive ligand. The conditions noted are these: AR42J cells, 125I-C3 competitive ligand, 37° C. 1 h; read-out: CCK2R/IC50. An outline of the steps:
(§3)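 Displacement of 125I-C1 or 125I-C3 tracer (0.02 μCi/well) by 0-10000 nM compound measured in triplicate on suspended AR42J cells in BSA-containing RPMI-1640, 37° C. for 1 h. After filtration washes, filter-bound counts gave IC50 via nonlinear regression fit.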

The target of data set [4] is T3, SSTR2 (Rattus norvegicus, UniProt P30680).
T3 construct: host or cells: AR42J cells
Briefly: Competitive cell-binding assay on AR42J cells with 125I-C1 as competitive ligand. The settings on record: AR42J cells, 125I-C1 competitive ligand, 37° C. 1 h; read-out: SSTR2/IC50. An outline of the steps:
as §3

Data set [5] concerns the target T1, CCK2R. Briefly: Competitive binding (FACS) on CCK2R-transfected HEK 293T cells with Cy5-labeled F11N derivative. The settings on record: Cy5-labeled F11N derivative competitive ligand (Table 4).
For data set [6], the target named is T4, SSTR2 (Homo sapiens, UniProt P30874).
T4 construct: expressed in transfected cells; host or cells: HEK 293T cells
Nature of the data set: Competitive binding (FACS) on SSTR2-transfected HEK 293T cells with Cy5-labled DOTA-TATE. The settings on record: HEK 293T transfected, Cy5-labled DOTA-TATE competitive ligand (Table 4). As for the experimental part:
as §1, §2

Where [7] appears, read: HEK 293T transfected, read-out: CCK2R IC50.

Structures are written as SMILES. pIC50: −log10 of the molar value. *1 amine or outer side, *2 acyl side, *3 side chain or, on linkers, in order; H or OH if unused. Where a SMILES comes first, the peptide text is derived from it. Bridges are numbered along the chain shown (N, C = ends). Roman numbers before positions name the chains, in order. Side-chain parts run from the residue outwards. [ ]: non-standard residue; d: D form. The star is where a group is joined. ξ: configuration not given here. X1 = CC(C)(C)C(=O)CN1C(=O)[C@H](N*)CN(C2CCCCC2)c2ccccc21; DOTA = O=C(O)CN1CCN(CC(=O)O)CCN(CC(=O)*)CCN(CC(=O)O)CC1; γGlu = O=C(O)[C@H](CCC(=O)[*:2])N[*:1]; X2 = CC(=O)[C@H](Cc1ccc(O)cc1)N*; X3 = CC(=O)[C@@H](N*)[C@@H](C)O; 3Abz = Nc1cccc(C(=O)O)c1; ξF = NC(Cc1ccccc1)C(=O)O; ξE = NC(CCC(=O)O)C(=O)O; AEEA = NCCOCCOCC(=O)O; CO = O=C([*:1])[*:2]

T4 sequence (P30874 whole entry, species assumed): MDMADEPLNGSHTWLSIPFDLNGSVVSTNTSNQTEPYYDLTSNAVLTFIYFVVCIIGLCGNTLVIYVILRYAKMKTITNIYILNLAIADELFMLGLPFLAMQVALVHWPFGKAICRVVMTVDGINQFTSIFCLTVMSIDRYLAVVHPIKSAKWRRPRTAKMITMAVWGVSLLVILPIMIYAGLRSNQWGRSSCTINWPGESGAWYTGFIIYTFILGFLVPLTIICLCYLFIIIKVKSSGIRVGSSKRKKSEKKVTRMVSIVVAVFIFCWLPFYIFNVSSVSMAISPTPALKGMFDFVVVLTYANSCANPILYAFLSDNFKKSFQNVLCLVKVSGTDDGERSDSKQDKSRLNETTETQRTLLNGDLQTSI
T3 sequence (P30680 whole entry): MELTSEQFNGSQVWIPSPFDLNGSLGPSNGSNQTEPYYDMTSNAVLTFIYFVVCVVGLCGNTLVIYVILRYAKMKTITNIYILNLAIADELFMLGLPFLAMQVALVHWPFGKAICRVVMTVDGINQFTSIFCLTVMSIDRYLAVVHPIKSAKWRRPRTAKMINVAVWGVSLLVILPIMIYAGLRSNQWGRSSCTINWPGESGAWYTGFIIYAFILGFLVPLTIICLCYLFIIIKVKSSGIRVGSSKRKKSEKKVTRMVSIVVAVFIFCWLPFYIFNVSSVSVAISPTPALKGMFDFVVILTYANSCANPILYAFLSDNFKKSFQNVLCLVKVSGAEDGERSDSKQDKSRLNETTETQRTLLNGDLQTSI

`C[C@@H](O)[C@H](NC(=O)[C@@H]1CSSC[C@H](NC(=O)[C@@H](Cc2ccccc2)NC(=O)COCCOCCNC(=O)[C@H](CCCCNC(=O)c2cccc(NC(=O)N[C@@H]3CN(C4CCCCC4)c4ccccc4N(CC(=O)C(C)(C)C)C3=O)c2)NC(=O)CN2CCN(CC(=O)O)CCN(CC(=O)O)CCN(CC(=O)O)CC2)C(=O)N[C@@H](Cc2ccc(O)cc2)C(=O)N[C@H](Cc2c[nH]c3ccccc23)C(=O)N[C@@H](CCCCN)C(=O)N[C@@H]([C@@H](C)O)C(=O)N1)C(=O)O` [Compound I-37, DOTA-K(Z360)-OEG-f[CYwKTC]T-OH]: the tissue uptake (usually the percentage of the injected dose found per gram of tissue) at 24 h in data set [1] (uptake Kidney) stood at 7.79 %ID/g; in data set [1] (uptake Liver), 2.4 %ID/g; in data set [1] (uptake Pancreas), 0.68 %ID/g; in data set [1] (uptake Spleen), 0.2 %ID/g; in data set [1] (uptake Stomach), 2.58 %ID/g; in data set [1] (uptake Tumor), 23.1 %ID/g. For the same compound, the pIC50 was 7.97 in data set [2], 8.38 in data set [3] and 8.52 in data set [4].
In the case of `CC(=O)[C@H](Cc1ccc(O)cc1)NC(=O)[C@H](CSSC[C@H](NC(=O)[C@@H](NC(=O)[C@H](CCCCN)NC(=O)[C@H](N)Cc1c[nH]c2ccccc12)[C@@H](C)O)C(=O)N[C@H](C(C)=O)[C@@H](C)O)NC(=O)C(Cc1ccccc1)NC(=O)COCCOCCNC(=O)COCCOCCNC(=O)CC[C@H](NC(=O)C(CCC(=O)O)NC(=O)[C@H](CCCCNC(=O)c1cccc(NC(=O)N[C@@H]2CN(C3CCCCC3)c3ccccc3N(CC(=O)C(C)(C)C)C2=O)c1)NC(=O)CN1CCN(CC(=O)O)CCN(CC(=O)O)CCN(CC(=O)O)CC1)C(=O)O` (stereo partly drawn) [Compound I-75, DOTA-K(Z360)-Glu-gGlu-OEG-OEG-f[CYwKTC]T-OH] (I: {DOTA}-K([3Abz-CO-X1])[ξE][γGlu][AEEA][AEEA][ξF]C-X2 / II: H-[dW]KTC-X3; disulfide I:7-II:4), the values for the pIC50 in data set [5] (setting [7]) and in data set [6] were 6.90 and 8.03, respectively.
For `C[C@@H](O)[C@H](NC(=O)[C@@H]1CSSC[C@H](NC(=O)[C@@H](Cc2ccccc2)C(=O)C(=O)COCCOCCNC(=O)[C@H](CCCCCC(=O)COCCOCCNC(=O)COCCOCCCC(=O)[C@H](CCC(=O)O)NC(=O)c2cccc(NC(=O)NN3CCc4ccccc4N(CC(=O)C(C)(C)C)C3=O)c2)NC(=O)CN2CCN(CC(=O)O)CCN(CC(=O)O)CCN(CC(=O)O)CC2)C(=O)N[C@@H](Cc2ccc(O)cc2)C(=O)N[C@H](Cc2c[nH]c3ccccc23)C(=O)N[C@@H](CCCCN)C(=O)N[C@@H]([C@@H](C)O)C(=O)C1)C(=O)O` [Compound I-76, DOTA-K(-OEG-OEG-Glu-Z360)-OEG-f[CYwKTC]T-OH], the pIC50 in data set [5] (setting [7]) was 7.95; in data set [6] it was 8.26.
With `C[C@@H](O)[C@H](NC(=O)[C@@H]1CSSC[C@H](NC(=O)[C@@H](Cc2ccccc2)C(=O)C(=O)COCCOCCNC(=O)[C@H](CCCCCC(=O)COCCOCCNC(=O)CC[C@H](NC(=O)[C@H](CO)NC(=O)c2cccc(NC(=O)NN3CC(C4CCCCC4)c4ccccc4N(CC(=O)C(C)(C)C)C3=O)c2)C(=O)O)NC(=O)CN2CCN(CC(=O)O)CCN(CC(=O)O)CCN(CC(=O)O)CC2)C(=O)N[C@@H](Cc2ccc(O)cc2)C(=O)N[C@H](Cc2c[nH]c3ccccc23)C(=O)N[C@@H](CCCCN)C(=O)N[C@@H]([C@@H](C)O)C(=O)C1)C(=O)O` (stereo partly drawn) [Compound I-77, DOTA- K(-OEG- gGlu- Ser- Z360)- OEG- f]CYwKTC]T- OH], the figures for the pIC50 in data set [5] (setting [7]) and in data set [6] were 7.71 and 8.32, respectively.
Consider `C[C@@H](O)[C@H](NC(=O)[C@@H]1CSSC[C@H](NC(=O)[C@@H](Cc2ccccc2)C(=O)C(=O)COCCOCCNC(=O)[C@H](CCCCCC(=O)COCCOCCNC(=O)CC[C@H](NC(=O)[C@H](CN)NC(=O)c2cccc(NC(=O)NN3CC(C4CCCCC4)c4ccccc4N(CC(=O)C(C)(C)C)C3=O)c2)C(=O)O)NC(=O)CN2CCN(CC(=O)O)CCN(CC(=O)O)CCN(CC(=O)O)CC2)C(=O)N[C@@H](Cc2ccc(O)cc2)C(=O)N[C@H](Cc2c[nH]c3ccccc23)C(=O)N[C@@H](CCCCN)C(=O)N[C@@H]([C@@H](C)O)C(=O)C1)C(=O)O` (stereo partly drawn) [Compound I-78, DOTA- K(-OEG- gGlu- Dap- Z360)- OEG- f[CYwKTC]T- OH], for which the results for the pIC50 in data set [5] (setting [7]) and in data set [6] were 7.52 and 8.21, respectively.
For `C[C@@H](O)[C@H](NC(=O)[C@@H]1CSSC[C@H](NC(=O)[C@@H](Cc2ccccc2)C(=O)C(=O)COCCOCCNC(=O)[C@H](CCCCCC(=O)COCCOCCNC(=O)[C@H](Cc2c[nH]cn2)NC(=O)[C@H](CCC(=O)O)NC(=O)c2cccc(NC(=O)N[C@@H]3CN(C4CCCCC4)c4ccccc4N(CC(=O)C(C)(C)C)C3=O)c2)NC(=O)CN2CCN(CC(=O)O)CCN(CC(=O)O)CCN(CC(=O)O)CC2)C(=O)N[C@@H](Cc2ccc(O)cc2)C(=O)N[C@H](Cc2c[nH]c3ccccc23)C(=O)N[C@@H](CCCCN)C(=O)N[C@@H]([C@@H](C)O)C(=O)C1)C(=O)O` [Compound I-79, DOTA- K(-OEG- His- Glu- Z360)- OEG- f[CYwKTC]T- OH], the pIC50 is 7.78 in data set [5] (CCK2R IC50, HEK 293T transfected) and 8.17 in data set [6].
Consider `C[C@@H](O)[C@H](NC(=O)[C@@H]1CSSC[C@H](NC(=O)[C@@H](Cc2ccccc2)C(=O)C(=O)COCCOCCNC(=O)[C@H](CCCCCC(=O)COCCOCCNC(=O)COCCOCCNC(=O)C(Cc2ccc(C(=O)O)cc2)NC(=O)c2cccc(NC(=O)NN3CC(C4CCCCC4)c4ccccc4N(CC(=O)C(C)(C)C)C3=O)c2)NC(=O)CN2CCN(CC(=O)O)CCN(CC(=O)O)CCN(CC(=O)O)CC2)C(=O)N[C@@H](Cc2ccc(O)cc2)C(=O)N[C@H](Cc2c[nH]c3ccccc23)C(=O)N[C@@H](CCCCN)C(=O)N[C@@H]([C@@H](C)O)C(=O)C1)C(=O)O` (stereo partly drawn) [Compound I-80, DOTA-K(-OEG-OEG-Cbp-Z360)-OEG-f[CYwKTC]T-OH], for which the pIC50 in data set [5] (setting [7]) was 7.62; in data set [6], 8.30.
